Laboratory results published in ChEMBL document CHEMBL2157955, “Design, synthesis and anticancer activity of 1-acyl-3-amino-1,4,5,6-tetrahydropyrrolo[3,4-c]pyrazole derivatives” (Bioorg Med Chem Lett, 2012).

What was measured:
HCT-116 [1] = assay: Cytotoxicity against human HCT116 cells after 48 hrs by SRB assay; format: functional, cell-based; conditions: HCT-116, 48 h
HepG2 [2] = assay: Cytotoxicity against human HepG2 cells after 48 hrs by SRB assay; format: functional, cell-based; conditions: HepG2, 48 h
[3] = Cytotoxicity against human L02 cells after 48 hrs by SRB assay; format: cell-based; conditions: L02, 48 h
HT-29 [4] = assay: Cytotoxicity against human HT-29 cells after 48 hrs by SRB assay; format: functional, cell-based; conditions: HT-29, 48 h
MCF7 [5] = assay: Cytotoxicity against human MCF7 cells after 48 hrs by SRB assay; format: functional, cell-based; conditions: MCF7, 48 h
A549 [6] = assay: Cytotoxicity against human A549 cells after 48 hrs by SRB assay; format: functional, cell-based; conditions: A549, 48 h
HT-1080 [7] = assay: Cytotoxicity against human HT1080 cells after 48 hrs by SRB assay; format: functional, cell-based; conditions: HT-1080, 48 h
[8] = target: Epidermal growth factor receptor (Homo sapiens) (UniProt P00533); assay: Inhibition of human EGFR at 10 uM
HT-29 [9] = assay: Ratio of (R)-roscovitine IC50 to compound IC50 for human HT-29 cells; format: functional
[10] = target: Cyclin-dependent kinase 5/CDK5 activator 1 (Homo sapiens) (UniProt Q00535+Q15078); assay: Inhibition of human CDK5/p25 at 10 uM; format: protein-complex assay
[11] = target: T1, Aurora kinase A (Homo sapiens) (UniProt O14965); assay: Inhibition of human Aurora A kinase at 10 uM
T1 sequence (whole entry): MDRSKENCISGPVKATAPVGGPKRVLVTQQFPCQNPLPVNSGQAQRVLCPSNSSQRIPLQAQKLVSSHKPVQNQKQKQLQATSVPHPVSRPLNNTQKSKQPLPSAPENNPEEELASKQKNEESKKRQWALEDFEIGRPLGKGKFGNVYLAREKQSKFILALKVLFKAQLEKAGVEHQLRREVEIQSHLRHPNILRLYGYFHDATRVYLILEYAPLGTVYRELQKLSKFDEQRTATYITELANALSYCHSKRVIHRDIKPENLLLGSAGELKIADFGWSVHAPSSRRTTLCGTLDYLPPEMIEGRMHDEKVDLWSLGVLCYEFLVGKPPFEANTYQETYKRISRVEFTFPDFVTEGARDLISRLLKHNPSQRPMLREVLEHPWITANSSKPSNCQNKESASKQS

[12] = target: Serine/threonine-protein kinase mTOR (Homo sapiens) (UniProt P42345); assay: Inhibition of human mTOR at 10 uM
[13] = target: Glycogen synthase kinase-3 beta (Homo sapiens) (UniProt P49841); assay: Inhibition of human GSK3beta at 10 uM
[14] = target: Cyclin-dependent kinase 7/ cyclin H (Homo sapiens) (UniProt P51946+P50613); assay: Inhibition of human CDK7/CyclinH/MAT1 at 10 uM; format: protein-complex assay
A549 [15] = assay: Ratio of (R)-roscovitine IC50 to compound IC50 for human A549 cells; format: functional
[16] = target: CDK9/cyclin T1 (Homo sapiens) (UniProt O60563+P50750); assay: Inhibition of human CDK9/CyclinT1 at 10 uM; format: protein-complex assay
HCT-116 [17] = assay: Ratio of (R)-roscovitine IC50 to compound IC50 for human HCT116 cells; format: functional
MCF7 [18] = assay: Ratio of (R)-roscovitine IC50 to compound IC50 for human MCF7 cells; format: functional
[19] = target: Cyclin-dependent kinase 2/cyclin A (Homo sapiens) (UniProt P24941+P20248+P78396); assay: Inhibition of human CDK2/cyclin A at 10 uM; format: protein-complex assay
[20] = target: Aurora kinase B (Homo sapiens) (UniProt Q96GD4); assay: Inhibition of human Aurora B kinase at 10 uM
HepG2 [21] = assay: Ratio of (R)-roscovitine IC50 to compound IC50 for human HepG2 cells; format: functional
[22] = target: Cyclin-dependent kinase 1/cyclin B1 (Homo sapiens) (UniProt P06493+P14635); assay: Inhibition of human CDK1/cyclinB at 10 uM; format: protein-complex assay
HT-1080 [23] = assay: Ratio of (R)-roscovitine IC50 to compound IC50 for human HT1080 cells; format: functional
[24] = target: Cyclin-dependent kinase 2/cyclin E (Homo sapiens) (UniProt P24864+P24941+O96020); assay: Inhibition of human CDK2/cyclin E at 10 uM; format: protein-complex assay

Chain of Epidermal growth factor receptor (Homo sapiens) (P00533 whole entry): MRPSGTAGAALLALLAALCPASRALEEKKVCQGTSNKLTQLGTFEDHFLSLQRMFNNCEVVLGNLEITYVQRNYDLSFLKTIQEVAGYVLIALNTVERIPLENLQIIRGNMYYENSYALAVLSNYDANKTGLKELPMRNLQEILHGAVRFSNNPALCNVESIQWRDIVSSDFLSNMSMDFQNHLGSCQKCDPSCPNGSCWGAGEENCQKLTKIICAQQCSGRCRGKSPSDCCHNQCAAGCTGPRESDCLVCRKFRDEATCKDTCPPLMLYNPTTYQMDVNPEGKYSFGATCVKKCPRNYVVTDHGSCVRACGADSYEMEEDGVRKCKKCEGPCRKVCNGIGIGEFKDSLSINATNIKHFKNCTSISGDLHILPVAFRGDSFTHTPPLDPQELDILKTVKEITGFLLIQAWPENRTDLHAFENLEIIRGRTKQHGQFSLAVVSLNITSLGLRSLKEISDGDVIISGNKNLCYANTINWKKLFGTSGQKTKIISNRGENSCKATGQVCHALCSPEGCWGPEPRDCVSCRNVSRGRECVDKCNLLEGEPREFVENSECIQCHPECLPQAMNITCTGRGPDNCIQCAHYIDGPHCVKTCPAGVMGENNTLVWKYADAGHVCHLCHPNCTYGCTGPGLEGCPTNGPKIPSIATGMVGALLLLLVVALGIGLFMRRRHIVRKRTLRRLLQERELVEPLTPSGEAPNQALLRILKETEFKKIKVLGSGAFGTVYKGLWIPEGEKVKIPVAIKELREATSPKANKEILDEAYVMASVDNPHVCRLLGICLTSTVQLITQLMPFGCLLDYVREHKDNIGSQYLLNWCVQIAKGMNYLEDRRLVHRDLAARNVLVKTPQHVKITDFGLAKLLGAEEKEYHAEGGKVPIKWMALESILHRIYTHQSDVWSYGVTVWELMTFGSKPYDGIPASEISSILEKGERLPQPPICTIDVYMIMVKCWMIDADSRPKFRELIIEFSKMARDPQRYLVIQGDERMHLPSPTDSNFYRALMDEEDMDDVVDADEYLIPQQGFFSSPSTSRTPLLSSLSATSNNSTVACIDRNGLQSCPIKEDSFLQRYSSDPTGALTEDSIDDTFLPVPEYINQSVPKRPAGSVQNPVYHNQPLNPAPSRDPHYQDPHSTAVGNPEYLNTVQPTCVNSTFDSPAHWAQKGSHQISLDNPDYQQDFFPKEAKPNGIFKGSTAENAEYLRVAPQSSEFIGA
Chain of Aurora kinase B (Homo sapiens) (Q96GD4 whole entry): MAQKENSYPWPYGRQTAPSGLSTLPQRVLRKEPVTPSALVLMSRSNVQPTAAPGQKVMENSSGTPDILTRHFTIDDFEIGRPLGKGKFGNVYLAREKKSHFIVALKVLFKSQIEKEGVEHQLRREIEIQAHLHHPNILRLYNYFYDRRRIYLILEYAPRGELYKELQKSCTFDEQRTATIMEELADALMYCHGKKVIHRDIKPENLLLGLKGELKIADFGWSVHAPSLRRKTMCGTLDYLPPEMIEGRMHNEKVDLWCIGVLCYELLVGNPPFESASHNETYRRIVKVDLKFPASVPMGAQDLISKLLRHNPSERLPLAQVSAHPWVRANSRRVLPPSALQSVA
Chain of Cyclin-dependent kinase 1/cyclin B1 (Homo sapiens) (P06493 whole entry, looked up): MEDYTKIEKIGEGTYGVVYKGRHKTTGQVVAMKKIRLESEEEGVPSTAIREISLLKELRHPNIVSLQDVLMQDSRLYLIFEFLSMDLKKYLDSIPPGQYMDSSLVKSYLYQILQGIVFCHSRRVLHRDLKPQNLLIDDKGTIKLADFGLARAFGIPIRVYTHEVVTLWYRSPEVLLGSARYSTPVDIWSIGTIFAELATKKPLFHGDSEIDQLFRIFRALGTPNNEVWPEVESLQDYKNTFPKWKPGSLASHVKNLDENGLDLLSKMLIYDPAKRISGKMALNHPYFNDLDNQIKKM
Chain of Cyclin-dependent kinase 1/cyclin B1 (Homo sapiens) (P14635 whole entry, looked up): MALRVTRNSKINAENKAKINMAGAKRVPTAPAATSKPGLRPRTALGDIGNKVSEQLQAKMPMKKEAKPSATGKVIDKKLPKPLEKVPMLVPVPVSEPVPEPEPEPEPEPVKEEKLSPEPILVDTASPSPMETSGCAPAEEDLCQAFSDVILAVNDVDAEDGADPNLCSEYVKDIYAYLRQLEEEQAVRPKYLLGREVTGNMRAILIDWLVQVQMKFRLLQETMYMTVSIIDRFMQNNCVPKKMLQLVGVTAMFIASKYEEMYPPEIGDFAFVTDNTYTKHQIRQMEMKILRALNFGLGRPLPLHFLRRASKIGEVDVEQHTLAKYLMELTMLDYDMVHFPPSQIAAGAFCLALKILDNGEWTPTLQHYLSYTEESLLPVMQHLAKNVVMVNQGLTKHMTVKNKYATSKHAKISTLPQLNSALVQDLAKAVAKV
Chain of Cyclin-dependent kinase 5/CDK5 activator 1 (Homo sapiens) (Q00535 whole entry): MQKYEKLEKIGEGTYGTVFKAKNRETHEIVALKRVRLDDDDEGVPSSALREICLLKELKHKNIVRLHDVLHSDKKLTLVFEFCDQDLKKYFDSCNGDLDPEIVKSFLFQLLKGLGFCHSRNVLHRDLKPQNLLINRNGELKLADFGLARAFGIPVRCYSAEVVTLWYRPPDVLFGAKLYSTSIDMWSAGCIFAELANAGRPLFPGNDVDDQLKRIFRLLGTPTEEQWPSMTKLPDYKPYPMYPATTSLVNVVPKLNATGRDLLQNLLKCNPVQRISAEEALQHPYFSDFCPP
Chain of Cyclin-dependent kinase 5/CDK5 activator 1 (Homo sapiens) (Q15078 99-307 partner limits assumed): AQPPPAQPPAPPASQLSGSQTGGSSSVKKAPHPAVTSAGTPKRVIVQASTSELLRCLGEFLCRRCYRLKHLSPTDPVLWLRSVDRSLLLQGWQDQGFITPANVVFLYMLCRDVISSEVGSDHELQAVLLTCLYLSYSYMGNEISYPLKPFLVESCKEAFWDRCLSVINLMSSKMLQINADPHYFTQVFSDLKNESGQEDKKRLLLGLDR
Chain of Glycogen synthase kinase-3 beta (Homo sapiens) (P49841 whole entry, looked up): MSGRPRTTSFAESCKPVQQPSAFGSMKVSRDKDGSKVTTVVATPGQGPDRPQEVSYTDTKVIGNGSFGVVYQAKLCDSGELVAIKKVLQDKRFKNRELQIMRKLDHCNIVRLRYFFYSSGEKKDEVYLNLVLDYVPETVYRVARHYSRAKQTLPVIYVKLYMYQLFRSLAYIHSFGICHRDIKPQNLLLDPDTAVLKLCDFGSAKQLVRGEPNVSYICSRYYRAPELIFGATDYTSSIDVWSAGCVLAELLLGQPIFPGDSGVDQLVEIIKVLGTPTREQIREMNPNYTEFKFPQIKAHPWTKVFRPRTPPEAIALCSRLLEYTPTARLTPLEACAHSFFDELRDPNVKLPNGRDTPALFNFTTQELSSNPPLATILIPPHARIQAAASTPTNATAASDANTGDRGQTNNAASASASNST

## O=C(Nc1nn(C(=O)Cc2ccccc2)c2c1CN(C(=O)c1ccccc1)C2)c1ccccc1
HCT-116 [1]
  IC50: 2.61 µM

## CC(=O)n1nc(NC(=O)c2ccccc2)c2c1CN(C(=O)c1cccc(F)c1)C2
HCT-116 [1]
  IC50: 21.9 µM

## CC(=O)n1nc(NC(=O)c2ccccc2)c2c1CN(C(=O)c1ccc(-c3ccccc3)cc1)C2
HCT-116 [1]
  IC50: > 90 µM

## CC(=O)n1nc(NC(=O)c2ccccc2)c2c1CN(C(=O)CCl)C2
HCT-116 [1]
  IC50: 4.1 µM

## CCCCNC(=O)N1Cc2c(NC(=O)Cc3ccccc3)nn(C(=O)c3ccccc3)c2C1
HCT-116 [1]
  IC50: 43.1 µM

## COc1ccc(C(=O)Nc2n[nH]c3c2CN(C(=O)c2ccccc2)C3)cc1
HCT-116 [1]
  IC50: 13.6 µM

## COc1ccc(C(=O)Nc2nn(C(=O)c3ccccc3)c3c2CN(C(=O)c2ccccc2)C3)cc1
HCT-116 [1]
  IC50: 31.3 µM

## CCCCNC(=O)N1Cc2c(NC(=O)c3ccc(C)cc3)nn(C(=O)C3CC3)c2C1
HCT-116 [1]
  IC50: 17.6 µM

## CC(=O)n1nc(NC(=O)c2ccccc2)c2c1CN(C(=O)N(C)C)C2
HCT-116 [1]
  IC50: 70.3 µM

## O=C(Nc1n[nH]c2c1CN(C(=O)c1ccccc1)C2)c1ccccc1
HCT-116 [1]
  IC50: 6.4 µM

## CC(=O)n1nc(NC(=O)c2ccccc2)c2c1CN(C(=O)C1CCC(C)CC1)C2 (stereo not drawn)
HCT-116 [1]
  IC50: 12.2 µM

## CC(=O)n1nc(NC(=O)c2ccccc2)c2c1CN(S(=O)(=O)N(C)C)C2
HCT-116 [1]
  IC50: 35.3 µM

## CC[C@H](CO)Nc1nc(NCc2ccccc2)c2ncn(C(C)C)c2n1 [SELICICLIB]
HepG2 [2]
  IC50: 15.5 µM
HCT-116 [1]
  IC50: 16.4 µM
[3]
  IC50: 20.5 µM
HT-29 [4]
  IC50: 11.6 µM
MCF7 [5]
  IC50: 12.2 µM
A549 [6]
  IC50: 14.1 µM
HT-1080 [7]
  IC50: 9.62 µM

## CC(=O)n1nc(NC(=O)c2ccccc2)c2c1CN(C(=O)c1cccc([N+](=O)[O-])c1)C2
HCT-116 [1]
  IC50: 17.3 µM

## CCC(=O)n1nc(NC(=O)c2ccccc2)c2c1CN(C(=O)c1ccccc1)C2
HepG2 [2]
  IC50: 0.86 µM
HCT-116 [1]
  IC50: 1.06 µM
[3]
  IC50: 2.47 µM
HT-29 [4]
  IC50: 0.91 µM
MCF7 [5]
  IC50: 1.07 µM

## CC(=O)n1nc(NC(=O)c2ccccc2)c2c1CN(C(=O)c1ccc([N+](=O)[O-])cc1)C2
HCT-116 [1]
  IC50: 16.2 µM

## O=C(Nc1nn(C(=O)c2ccccc2)c2c1CN(C(=O)c1ccccc1)C2)c1ccccc1
HCT-116 [1]
  IC50: 1.4 µM

## CCCCNC(=O)N1Cc2c(NC(=O)c3ccccc3)nn(C(=O)c3ccccc3)c2C1
HCT-116 [1]
  IC50: 7.47 µM

## CC(C)C(=O)n1nc(NC(=O)c2ccccc2)c2c1CN(C(=O)c1ccccc1)C2
HCT-116 [1]
  IC50: 2.02 µM

## CCCCNC(=O)N1Cc2c(NC(=O)c3ccc(OC)cc3)nn(C(=O)C3CC3)c2C1
HCT-116 [1]
  IC50: 65.5 µM

## CC(=O)n1nc(NC(=O)c2ccccc2)c2c1CN(S(=O)(=O)c1ccc([N+](=O)[O-])cc1)C2
HCT-116 [1]
  IC50: 22.3 µM

## O=C(Nc1nn(C(=O)c2ccccc2)c2c1CN(C(=O)c1ccccc1)C2)c1ccc(F)cc1
HCT-116 [1]
  IC50: 2.78 µM

## O=C(Nc1n[nH]c2c1CN(C(=O)c1ccccc1)C2)c1ccc(F)cc1
HCT-116 [1]
  IC50: 3.19 µM

## CCCCNC(=O)N1Cc2c(NC(=O)Cc3ccccc3)nn(C(=O)C3CC3)c2C1
HCT-116 [1]
  IC50: 31.2 µM

## O=C(Nc1nn(C(=O)C2CC2)c2c1CN(C(=O)c1ccccc1)C2)c1ccc(F)cc1
HCT-116 [1]
  IC50: 2.28 µM

## CCCCNC(=O)N1Cc2c(NC(=O)c3ccc(C)cc3)nn(C(=O)c3ccccc3)c2C1
HCT-116 [1]
  IC50: 23.2 µM

## COc1ccc(C(=O)Nc2nn(C(=O)C3CC3)c3c2CN(C(=O)c2ccccc2)C3)cc1
HCT-116 [1]
  IC50: 5.18 µM

## CC(=O)n1nc(NC(=O)c2ccccc2)c2c1CN(C(=O)c1cccc(Cl)c1)C2
HCT-116 [1]
  IC50: 17.4 µM

## CCCCNC(=O)N1Cc2c(NC(=O)c3ccccc3)nn(C(=O)C3CC3)c2C1
HCT-116 [1]
  IC50: 3.47 µM

## CC(=O)n1nc(NC(=O)c2ccccc2)c2c1CN(C(=O)c1ccncc1)C2
HCT-116 [1]
  IC50: 10 µM

## CC(=O)n1nc(NC(=O)c2ccccc2)c2c1CN(C(=O)c1ccccc1)C2
[8]
  inhibition: 8%
HT-29 [9]
  Ratio IC50: 4
[10]
  inhibition: 72%
[11]
  inhibition: 33%
[12]
  inhibition: 3%
HepG2 [2]
  IC50: 0.81 µM
HCT-116 [1]
  IC50: 0.58 µM
[13]
  inhibition: 67%
[3]
  IC50: 2.22 µM
HT-29 [4]
  IC50: 0.92 µM
[14]
  inhibition: 5%
A549 [15]
  Ratio IC50: 4
[16]
  inhibition: 10%
HCT-116 [17]
  Ratio IC50: 28
MCF7 [18]
  Ratio IC50: 4
[19]
  inhibition: 17%
MCF7 [5]
  IC50: 0.99 µM
A549 [6]
  IC50: 1.74 µM
[20]
  inhibition: 32%
HT-1080 [7]
  IC50: 2.13 µM
HepG2 [21]
  Ratio IC50: 4
[22]
  inhibition: 30%
HT-1080 [23]
  Ratio IC50: 4
[24]
  inhibition: 30%

## CCCCNC(=O)N1Cc2c(NC(=O)c3ccc(F)cc3)nn(C(=O)C3CC3)c2C1
HCT-116 [1]
  IC50: 23.2 µM

## CCCCNC(=O)N1Cc2c(NC(=O)c3ccc(F)cc3)nn(C(=O)c3ccccc3)c2C1
HCT-116 [1]
  IC50: 30.8 µM

## CCCCNC(=O)N1Cc2c(NC(=O)c3ccc(OC)cc3)nn(C(=O)c3ccccc3)c2C1
HCT-116 [1]
  IC50: 25.3 µM

## O=C(Nc1nn(C(=O)C2CC2)c2c1CN(C(=O)c1ccccc1)C2)c1ccccc1
HCT-116 [1]
  IC50: 1.24 µM
